Experimental data: US11533912B2, “Use of cinnamate compounds in the control of fungal diseases of crops” (Institute of Plant Protection, Gansu Academy of …, priority 2019, dated 2022)

Experiments:
Assay type in all cases: cell-based
Exserohilum turcicum = test: Ex vivo mycelial growth, growth rate method; conditions: mycelial growth, 1 mg/mL
Pyricularia grisea = test: microbe, parasite or virus in culture; conditions: mycelial growth, 1 mg/mL
Phytophthora infestans = conditions: mycelial growth, Phytophthora infestans (second line); 1 mg/mL
[1] = tested on: F. oxysporum f. sp. vasinfectum; test: Ex vivo mycelial growth, growth rate method; conditions: mycelial growth, 1 mg/mL
Mycosphaerlla melonis = test: Ex vivo mycelial growth, growth rate method; conditions: mycelial growth, 1 mg/mL
Sclerotinia sclerotiorum = test: Ex vivo mycelial growth, growth rate method; conditions: mycelial growth, 1 mg/mL
F. graminearum = test: microbe, parasite or virus in culture; conditions: mycelial growth, F. graminearum (second line); 1 mg/mL
Botrytis cinerea = test: Ex vivo mycelial growth, growth rate method; conditions: mycelial growth, 1 mg/mL
C. gossypii = test: Ex vivo mycelial growth, growth rate method; conditions: mycelial growth, 1 mg/mL
F. oxysporum f. sp. lini = test: Ex vivo mycelial growth, growth rate method; conditions: mycelial growth, 1 mg/mL
Phytophthora capsici = test: Ex vivo mycelial growth, growth rate method; conditions: mycelial growth, Phytophthora capsici; 1 mg/mL

## CO/C=C(/C(=O)OC)c1ccccc1Oc1cc(Oc2ccccc2C#N)ncn1 [Azoxystrobin, azoxystrobin, reference compound]
Exserohilum turcicum
  Inhibition Rate: 27.78%
Pyricularia grisea
  Inhibition Rate: 48.11%
Phytophthora infestans
  Inhibition Rate: 100%
[1]
  Inhibition Rate: 66.33%
Mycosphaerlla melonis
  Inhibition Rate: 56.33%
Sclerotinia sclerotiorum
  Inhibition Rate: 51.11%
F. graminearum
  Inhibition Rate: 30.78%
Botrytis cinerea
  Inhibition Rate: 51.89%
C. gossypii
  Inhibition Rate: 40.33%
F. oxysporum f. sp. lini
  Inhibition Rate: 34.11%
Phytophthora capsici
  Inhibition Rate: 25.55%
